For 26 compounds, IC50 results are on record in ChEMBL document CHEMBL1124966, “Cholecystokinin-A receptor ligands based on the kappa-opioid agonist tifluadom” (J Med Chem, 1990).

pIC50: −log10 of the molar value.

Assay [1] concerns the target T1, Cholecystokinin receptor type A (Rattus norvegicus, UniProt P30551).
T1 sequence (P30551 whole entry): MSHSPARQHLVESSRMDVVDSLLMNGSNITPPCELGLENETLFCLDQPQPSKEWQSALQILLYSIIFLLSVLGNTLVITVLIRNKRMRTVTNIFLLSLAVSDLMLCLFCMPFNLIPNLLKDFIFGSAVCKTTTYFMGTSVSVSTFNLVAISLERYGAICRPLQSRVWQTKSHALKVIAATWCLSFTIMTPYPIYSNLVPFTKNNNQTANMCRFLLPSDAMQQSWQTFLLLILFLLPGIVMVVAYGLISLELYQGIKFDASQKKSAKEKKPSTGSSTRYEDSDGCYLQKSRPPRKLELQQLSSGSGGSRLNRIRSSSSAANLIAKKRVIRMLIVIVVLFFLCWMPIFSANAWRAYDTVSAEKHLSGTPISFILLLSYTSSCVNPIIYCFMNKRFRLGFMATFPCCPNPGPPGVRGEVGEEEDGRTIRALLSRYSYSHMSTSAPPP
Put plainly: Inhibition of binding of [125I]CCK-8 to Cholecystokinin type A receptor in rat pancreas.

The target in the next assay is Opioid receptor (Rattus norvegicus, UniProt P33533+P34975+P33535). The assay is described as follows: Displacement of [3H]dihydromorphine (DHM) from rat brain Opioid receptors.

For the compound `NCC1N=C(c2ccccc2F)c2ccccc2NC1=O` (centres undefined), the pIC50 in assay [1] is less than 4.00.
For the compound `CN1c2ccccc2C(c2ccccc2F)=NCC1CNC(=O)c1ccc(Cl)cc1` (centres undefined), the IC50 at Opioid receptor stood at 0.0005 µM.
Turning to `O=C(NCC1CNc2ccccc2C(c2ccccc2F)=N1)OCc1ccccc1` (centres undefined), the pIC50 in assay [1] was 4.55.
`CN1c2ccccc2C(c2ccccc2F)=NCC1CNC(=O)c1cccnc1` (centres undefined) yielded an IC50 at Opioid receptor of 0.45 µM.
For `CN1c2ccccc2C(c2ccccc2F)NCC1CNC(=O)c1ccsc1` (centres undefined), the IC50 on Opioid receptor is 0.03 µM.
On to `O=C(NCC1N=C(c2ccccc2F)c2ccccc2NC1=O)c1ccsc1` (centres undefined), for which the pIC50 in assay [1] is 4.66.
In the case of `CC(=O)NCSCC(=O)NCC1CN=C(c2ccccc2F)c2ccccc2N1C` (centres undefined), the half-inhibitory concentration (IC50) at Opioid receptor came to 0.12 µM.
As for `CN1c2ccccc2C(c2ccccc2F)=NCC1CNC(=O)Cc1cccc2sccc12` (centres undefined), the IC50 at Opioid receptor is 0.003 µM.
In the case of `O=C(NCC1CNc2ccccc2C(c2ccccc2F)=N1)c1cc2ccccc2[nH]1` (centres undefined), in assay [1], the pIC50 was 5.40.
`COC(=O)CC(NCC1CN=C(c2ccccc2F)c2ccccc2N1C)c1ccccc1` (centres undefined): the IC50 on Opioid receptor was 0.018 µM. The pIC50 in assay [1] was 7.74.
`CN1c2ccccc2C(c2ccccc2F)=NCC1CNC(=O)C(N)Cc1c[nH]c2ccccc12` (centres undefined) came in with a half-maximal inhibitory concentration (IC50) at Opioid receptor of 0.04 µM.
As for `Cc1ccc(C(=O)NC[C@@H]2CN=C(c3ccc(F)cc3)c3ccc(C)cc3N2C)cc1`, in assay [1], the pIC50 is 7.54.
Regarding `O=C(NCC1N=C(c2ccccc2F)c2ccccc2NC1=O)OCc1ccccc1` (centres undefined), on Opioid receptor, the IC50 came to 12 µM. This compound also gave a pIC50 in assay [1] of 4.66.
Consider `CCN(CC)c1ccc(NCC2CN=C(c3ccccc3F)c3ccccc3N2C)cc1C(F)(F)F` (centres undefined), for which the negative logarithm of the IC50 (pIC50) in assay [1] was 4.00.
`CN1c2ccccc2C(c2ccccc2F)=NCC1CNC(=O)C(O)c1ccccc1` (centres undefined): the IC50 on Opioid receptor amounted to 0.007 µM. Besides, the pIC50 in assay [1] is 6.22.
Compound `O=C1Nc2ccccc2C(c2ccccc2F)=NC1CNCC1N=C(c2ccccc2F)c2ccccc2NC1=O` (centres undefined) gave a pIC50 in assay [1] of 4.85.
`CN1c2ccccc2C(c2ccccc2F)=NCC1CNC(=O)Cc1c[nH]c2ccccc12` (centres undefined): at Opioid receptor, the IC50 was found to be 0.022 µM. That is a double-digit nanomolar value.
Turning to `CN1c2ccccc2C(c2ccccc2F)=NCC1CNC(=O)c1cc2ccccc2[nH]1` (centres undefined), the IC50 at Opioid receptor stood at 0.0003 µM.
Turning to `O=C(NCC1CNc2ccccc2C(c2ccccc2F)=N1)c1ccsc1` (centres undefined), the pIC50 in assay [1] was 5.00.
In assay [1], `O=C(NCC1N=C(c2ccccc2F)c2ccccc2NC1=O)c1cc2ccccc2[nH]1` (centres undefined) gave a pIC50 of 5.15.
The same measure, in the same setting: the result for `O=C1Nc2ccccc2C(c2ccccc2F)=NC1CNc1cnc(Cl)cn1` (centres undefined) reads 4.82; that for `CCN(CC)CNCC1CN=C(c2ccccc2F)c2ccccc2N1C` (centres undefined), less than 4.00.
`Cc1ccc(C(=O)NC[C@H]2CN=C(c3ccc(F)cc3)c3ccc(C)cc3N2C)cc1` had a negative-log IC50 (pIC50) in assay [1] of 6.59.
Take `CN1c2ccccc2C(c2ccccc2F)=NCC1CNC(=O)c1ccsc1` (racemic) [TIFLUADOM]: the pIC50 in assay [1] was 7.33.
For `O=C(NCC1CNc2ccccc2C(c2ccccc2F)=N1)C(O)c1ccccc1` (single isomer, unassigned; form 1), the negative logarithm of the IC50 (pIC50) in assay [1] was 5.10.
As to `O=C(NCC1CNc2ccccc2C(c2ccccc2F)=N1)C(O)c1ccccc1` (single isomer, unassigned; form 2), the pIC50 in assay [1] was less than 4.00.
